Results from US4175081A, “5-Substituted thiadiazole ureas” (priority 1977, dated 1979).

How the values were obtained:
[1] = test system: Yellow foxtail grass (YF); test: Post-emergence herbicide test; assay type: in vivo, Setaria glauca; settings: Setaria, 336 h, two weeks after treatment; for pest or weed control at 8966.8 g/ha: 8 lb/acre
Summary of the method: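 Potted seedlings grown in greenhouse, planting staggered to reach the target stage together, then sprayed post-emergence at 8 lbs actual compound/acre in 38 gallons/acre (4 lbs/acre formulations also prepared). Sub-irrigated afterwards. Injury or control rated visually two weeks after treatment.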

[2] = test system: variety of crops and weed species; test: Pre- and post-emergence herbicide tests, overall assessment of Tables III-VI; assay type: in vivo; settings: data of Tables III-VI
Experimental: All crop and weed species were planted individually in 3' plastic pots containing potting soil. Four seeds each of corn, cotton, and snapbeans were seeded to a depth equal to the diameter of the seed. All other species were surface seeded and sprinkled with screened soil in an amount sufficient to cover the seed. Immediately after planting, all pots were watered by sub-irrigation in greenhouse trays. Pots for the pre-emergence phase were seeded one day before treatment.
Compounds were tested at rates of application equivalent to 8 lbs. of actual compound per acre in a spray volume of 38 gallons per acre. Spray hood constants required to deliver the above volume are as follows:
Two weeks after treatment, pre- and post-emergence injury or control was visually rated, and the results were as shown in the following tables. Pre-emergence data are provided in TABLE III and post-emergence data are provided in TABLE IV, for compounds having the formula illustrated in TABLE I. Correspondingly, pre-emergence and post-emergence data, respectively, are set forth in TABLES V AND VI, for compounds having the formula illustrated in TABLE II.

Bean (BN) [3] = test: Pre-emergence herbicide test; assay type: in vivo, Phaseolus vulgaris var. Black Valentine; settings: Phaseolus vulgaris, 336 h, 8 lb/acre, two weeks after treatment
Summary of the method: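 Black Valentine bean was seeded in potting soil one day before spraying. Compound was applied pre-emergence at 8 lbs/acre (also 4 lbs/acre) in 38 gallons per acre. Plants were sub-irrigated and injury or control was rated visually after two weeks.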

[4] = test system: Yellow foxtail grass (YF); test: Pre-emergence herbicide test; assay type: in vivo, Setaria glauca; settings: Setaria, 336 h, 8 lb/acre, two weeks after treatment
Summary of the method: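 Seeds surface-sown in potting soil one day before spraying; compounds applied pre-emergence at 8 or 4 lbs/acre in 38 gallons/acre spray. Pots held in greenhouse with sub-irrigation only. Injury or control rated visually two weeks after treatment.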

Crabgrass (CG) [5] = test: Post-emergence herbicide test; assay type: in vivo, Digitaria sanquinalis; settings: Digitaria sanguinalis, post-emergence, 336 h, two weeks after treatment; for pest or weed control at 8966.8 g/ha: 8 lb/acre
Summary of the method: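 Crabgrass (Digitaria sanquinalis) was surface seeded individually in 3' plastic pots of potting soil, covered with screened soil, and watered by sub-irrigation in greenhouse trays. Planting was staggered so seedlings reached the target stage together. Post-emergence sprays were applied in a hood with a removable belt and fixed nozzle, and control was visually rated two weeks after treatment.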

Crabgrass (CG) [6] = test: Pre-emergence herbicide test; assay type: in vivo, Digitaria sanquinalis; settings: Digitaria sanguinalis, pre-emergence, 336 h; 8 lb/acre; two weeks after treatment
Summary of the method: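 Crabgrass (Digitaria sanquinalis) was surface seeded in 3' plastic pots of potting soil, covered with screened soil, and watered by sub-irrigation in greenhouse trays. Pots were seeded one day before spraying in a hood with a moving belt and fixed nozzle. Plants stayed in the greenhouse on sub-irrigation, and pre-emergence control was rated visually two weeks after treatment.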

Turnip (TP) [7] = test: Post-emergence herbicide test; assay type: in vivo, Brassica sp.; settings: Brassica rapa, post-emergence, 336 h, two weeks after treatment; for pest or weed control at 8966.8 g/ha: 8 lb/acre
Summary of the method: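 A greenhouse post-emergence herbicide test on turnip. Seeds were sown on the surface of potting soil in 3' plastic pots, lightly covered with screened soil and watered from below. Planting was timed so seedlings had 1 or 2 true leaves above the cotyledons at spraying, done in a hood with a fixed nozzle. Control or injury was scored by eye after two weeks.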

Bean (BN) [8] = test: Post-emergence herbicide test; assay type: in vivo, Phaseolus vulgaris var. Black Valentine; settings: Phaseolus vulgaris, post-emergence, 336 h, two weeks after treatment; for pest or weed control at 8966.8 g/ha: 8 lb/acre
Summary of the method: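 Snapbean (Phaseolus vulgaris var. Black Valentine) was tested post-emergence. Four seeds were sown in 3' plastic pots of potting soil at a depth equal to the seed diameter, then sub-irrigated in greenhouse trays. Planting dates were staggered so plants were sprayed once primary leaves had expanded, with the growing point at the primary leaf nodes.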

Johnson grass (JG) [9] = test: Post-emergence herbicide test; assay type: in vivo, Sorgum helepense; settings: Sorghum halepense, 336 h, two weeks after treatment; for pest or weed control at 8966.8 g/ha: 8 lb/acre
Summary of the method: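 Greenhouse pot-grown seedlings sprayed post-emergence at 8 lbs compound per acre (some at 4 lbs/acre) in 38 gallons per acre spray volume. Sub-irrigated thereafter. Injury/control rated visually two weeks after treatment.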

Johnson grass (JG) [10] = test: Pre-emergence herbicide test; assay type: in vivo, Sorgum helepense; settings: Sorghum halepense, 336 h, 8 lb/acre, two weeks after treatment
Summary of the method: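 Pots seeded one day before spraying; compound applied pre-emergence at 8 lbs/acre (or 4 lbs/acre) in 38 gallons/acre spray volume. Sub-irrigated in greenhouse; injury/control rated visually two weeks after treatment.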

Turnip (TP) [11] = test: Pre-emergence herbicide test; assay type: in vivo, Brassica sp.; settings: Brassica rapa, pre-emergence, 336 h; 8 lb/acre; two weeks after treatment
Summary of the method: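 Turnip (Brassica sp.) seeds were surface sown in 3' plastic pots of potting soil, covered with a thin layer of screened soil, and sub-irrigated in greenhouse trays. Pots were seeded one day ahead of treatment, sprayed pre-emergence under a hood with a fixed nozzle and moving belt, then kept in the greenhouse.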

Corn (CN) [12] = test: Post-emergence herbicide test; assay type: in vivo; settings: Zea mays, 336 h, two weeks after treatment; for pest or weed control at 8966.8 g/ha: 8 lb/acre
Summary of the method: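 Greenhouse seedlings grown in potting soil and sprayed post-emergence at 8 lbs compound/acre (formulations also made for 4 lbs/acre) in 38 gallons/acre spray volume. Watering by sub-irrigation only. Injury or control rated visually two weeks after treatment.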

Barnyard grass (BG) [13] = test: Pre-emergence herbicide test; assay type: in vivo; settings: Echinochloa crus-galli, 336 h, 8 lb/acre, two weeks after treatment
Summary of the method: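 Barnyard grass surface-seeded in potting soil and sprayed pre-emergence one day after seeding, at 8 or 4 lb compound/acre in 38 gal/acre spray volume. Pots kept in greenhouse with sub-irrigation only; injury or control rated visually two weeks after treatment.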

Cotton (CT) [14] = test: Post-emergence herbicide test; assay type: in vivo, Gossypium hirsutum var. DPL smooth leaf; settings: Gossypium hirsutum, post-emergence, 336 h, two weeks after treatment; for pest or weed control at 8966.8 g/ha: 8 lb/acre
Summary of the method: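 Cotton (Gossypium hirsutum var. DPL smooth leaf) was grown in 3' plastic pots of potting soil, four seeds per pot, planted at a depth equal to the seed diameter and watered by sub-irrigation. At the stage of expanded cotyledons with the first true leaf 1' long, plants were sprayed post-emergence in a hood with a fixed nozzle over a moving belt. Percent control was rated visually two weeks later.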

Corn (CN) [15] = test: Pre-emergence herbicide test; assay type: in vivo; settings: Zea mays, 336 h, 8 lb/acre, two weeks after treatment
Summary of the method: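 Four corn seeds per pot, sown at seed-diameter depth one day before spraying, got soil surface treatment at 8 lbs/acre (4 lbs/acre formulations also prepared) in 38 gallons/acre. Pots were greenhouse-held with sub-irrigation only. Injury or control was scored visually two weeks after treatment.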

Cotton (CT) [16] = test: Pre-emergence herbicide test; assay type: in vivo, Gossypium hirsutum var. DPL smooth leaf; settings: Gossypium hirsutum, 336 h, 8 lb/acre, two weeks after treatment
Summary of the method: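 Crop and weed species seeded one day before treatment, then sprayed pre-emergence at 8 lbs actual compound per acre (also 4 lbs/acre formulations) in 38 gallons per acre. Pots kept in greenhouse with sub-irrigation only; injury or control visually rated two weeks after treatment.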

Barnyard grass (BG) [17] = test: Post-emergence herbicide test; assay type: in vivo; settings: Echinochloa crus-galli, 336 h, two weeks after treatment; for pest or weed control at 8966.8 g/ha: 8 lb/acre
Summary of the method: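 Greenhouse pot-grown barnyard grass seedlings sprayed post-emergence at 8 lbs active compound per acre (some at 4 lbs/acre) in 38 gallons per acre, then sub-irrigated. Injury or control rated visually two weeks after treatment.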

Amaranth pigweed (PW) [18] = test: Post-emergence herbicide test; assay type: in vivo, Amaranthus retroflexus; settings: 336 h, two weeks after treatment; for pest or weed control at 8966.8 g/ha: 8 lb/acre
Summary of the method: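 Pot-grown pigweed was sprayed post-emergence at the 1–2 true-leaf stage with compound at rates equivalent to 8 lbs per acre (formulations also prepared for 4 lbs/acre) in 38 gallons per acre, using a hood with fixed nozzle. Plants were sub-irrigated in the greenhouse, and injury or control was rated visually two weeks after treatment.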

Amaranth pigweed (PW) [19] = test: Pre-emergence herbicide test; assay type: in vivo, Amaranthus retroflexus; settings: 336 h, 8 lb/acre, two weeks after treatment
Summary of the method: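 Pigweed was surface-seeded in potted soil one day before spraying at 8 lbs compound per acre, or 4 lbs/acre, in 38 gallons per acre. Pots were kept in the greenhouse with sub-irrigation only; injury or control was rated visually two weeks after treatment.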

SMILES | pest or weed control at 8966.8 g/ha [1] | herbicidal effectiveness / selectivity, in words [2] | pest or weed control at 8966.8 g/ha (Bean (BN) [3]) | pest or weed control at 8966.8 g/ha (Crabgrass (CG) [5]) | pest or weed control at 8966.8 g/ha (Crabgrass (CG) [6]) | pest or weed control at 8966.8 g/ha (Turnip (TP) [7]) | pest or weed control at 8966.8 g/ha (Bean (BN) [8]) | pest or weed control at 8966.8 g/ha (Johnson grass (JG) [9]) | pest or weed control at 8966.8 g/ha (Johnson grass (JG) [10]) | pest or weed control at 8966.8 g/ha (Turnip (TP) [11]) | pest or weed control at 8966.8 g/ha (Corn (CN) [12]) | pest or weed control at 8966.8 g/ha (Barnyard grass (BG) [13]) | pest or weed control at 8966.8 g/ha (Cotton (CT) [14]) | pest or weed control at 8966.8 g/ha (Corn (CN) [15]) | pest or weed control at 8966.8 g/ha (Cotton (CT) [16]) | pest or weed control at 8966.8 g/ha (Barnyard grass (BG) [17]) | pest or weed control at 8966.8 g/ha (Amaranth pigweed (PW) [18]) | pest or weed control at 8966.8 g/ha (Amaranth pigweed (PW) [19]) | further results
O=C(Nc1ccc(Cl)c(Cl)c1)Nc1nnc(C(F)(F)F)s1 [Example 16] | 20% | more selective when applied to a certain crop or weed species | 80% | 20% | 10% | 40% | 40% | 20% | 10% | 30% | 20% | 10% | 20% | 30% | 30% | 20% | – | – | pest or weed control at 8966.8 g/ha [4]: 10%
Cc1nnc(NC(=O)N(C)C)s1 [Example 19] | 20% | The converse of this relationship | 80% | 20% | 10% | 50% | 50% | 20% | 20% | 20% | 20% | 10% | 40% | 80% | 30% | 10% | 40% | 10% | –
CNC(=O)Nc1nnc(CC(C)C)s1 [Example 21] | – | more selective when applied to a certain crop or weed species | 100% | 30% | 20% | 20% | 60% | 30% | 10% | 20% | 20% | 10% | 50% | 10% | 10% | 20% | 20% | 60% | –
CNC(=O)Nc1nnc(SC)s1 [Example 26] | 90% | extremely effective when applied to a variety of crops and weed species | 30% | 100% | 100% | 100% | 100% | 100% | – | 30% | 40% | 50% | 90% | 50% | 100% | 60% | 100% | – | pest or weed control ([1]; 2 lb/acre): 60%; pest or weed control at 4483.4 g/ha ([1]; 4 lb/acre): 100%; pest or weed control (Crabgrass (CG) [5]; 2 lb/acre): 50%; pest or weed control at 4483.4 g/ha (Crabgrass (CG) [5]; 4 lb/acre): 100%; pest or weed control at 2241.7 g/ha (Amaranth pigweed (PW) [18]; 2 lb/acre): 90%; pest or weed control at 4483.4 g/ha (Amaranth pigweed (PW) [18]; 4 lb/acre): 100%; pest or weed control at 2241.7 g/ha (Turnip (TP) [7]; 2 lb/acre): 60%; pest or weed control at 4483.4 g/ha (Turnip (TP) [7]; 4 lb/acre): 100%; pest or weed control at 2241.7 g/ha (Bean (BN) [8]; 2 lb/acre): 100%; pest or weed control at 4483.4 g/ha (Bean (BN) [8]; 4 lb/acre): 100%; pest or weed control (Johnson grass (JG) [9]; 2 lb/acre): 30%; pest or weed control at 4483.4 g/ha (Johnson grass (JG) [9]; 4 lb/acre): 80%; pest or weed control (Corn (CN) [12]; 2 lb/acre): 20%; pest or weed control at 4483.4 g/ha (Corn (CN) [12]; 4 lb/acre): 100%; pest or weed control at 2241.7 g/ha (Cotton (CT) [14]; 2 lb/acre): 100%; pest or weed control at 4483.4 g/ha (Cotton (CT) [14]; 4 lb/acre): 90%; pest or weed control at 2241.7 g/ha (Barnyard grass (BG) [17]; 2 lb/acre): 10%; pest or weed control at 4483.4 g/ha (Barnyard grass (BG) [17]; 4 lb/acre): 100%
